We go through 14 compounds from US12121526B2, “Targeting NCCA-ATP channel for organ protection following ischemic episode” (University of Maryland, Baltimore, priority 2007, dated 2024).

“Also recorded” adds a separate entry of the source. Structures can show the parent of a compound that is named as a salt. Where two headings read alike, the source gives them in different places.

For assay [1], the target named is T1, SUR1-regulated NCCa-ATP channel (Homo sapiens, UniProt Q09428).
T1 construct: cultured endothelial cells from human aorta (ScienCell, SanDiego CA) were also studied; host or cells: human aortic endothelial cells (HAEC) cultured under hypoxia (1% O2)
The experiment in a line: Patch clamp of cultured human aortic endothelial cells after hypoxia. The format is cell-based. From the text:
In addition to studying freshly isolated capillary endothelial cells from rat spinal cord, cultured endothelial cells from human aorta (ScienCell, SanDiego CA) were also studied. The purpose with these studies was to investigate whether hypoxia/ischemia can lead to up-regulation of the SUR1-regulated NCCa-ATP channels in endothelial cells, a finding that was previously reported for astrocytes and neurons (Chen et al., 2003; Simard et al., 2006), but not endothelial cells. Endothelial cells were cultured under normoxic (room air) and hypoxic (1% 02) conditions. Cells cultured under both conditions were immunolabeled for SUR1, the regulatory subunit of both KATP and NCCa-ATP channels.
The diazoxide-induced current (difference current in FIG. 15A) reversed at E(K) consistent with an SUR1-regulated KATP channel current.
Inside-out patches from cells maintained under hypoxic conditions were also studied. […]
Patch clamp of endothelial cells was performed using a nystatin-perforated patch technique, to maintain the metabolic integrity of the cells. The identity of the activated channel can be assessed by measurement of the “reversal potential”, the potential at which an ion channel current reverses from inward to outward. […]
On the technique in general: The patch-clamp technique gives a direct electrical read-out from membranes.

Assay [2] deals with T2, NCCa-ATP channel (Rattus norvegicus, UniProt Q09429).
T2 construct: endogenous in cells; host or cells: freshly isolated native reactive astrocytes (NRA/R1 astrocytes) from the hypoxic inner zone of the gliotic capsule in brain
The note with it: cited from earlier work.

Assay [3] deals with freshly isolated reactive astrocytes. The note with it: cited from earlier work; for Cell blebbing: glibenclamide with 1 mM Na azide, diazoxide alone without ATP depletion.
The test system of another assay is permanent MCAO. The note with it: given 30 min after initiation of permanent MCAO; cited from earlier work.
A further assay deals with global cerebral ischemia. The note with it: in vivo; cited from earlier work.
For assay [4], the system named is permanent middle cerebral artery occlusion. The following applies: cited from earlier work.
The subject of assay [5] is temporary middle cerebral artery occlusion. The note with it: cited from earlier work.
Assay [6] deals with T2, NCCa-ATP channel. The experiment in a line: Patch clamp of NCCa-ATP channel in freshly isolated native reactive astrocytes. It counts as cell-based. The note with it: for EC50: read-out: [ATP]1 EC50 (um). From the text: The NCCa-ATP channel is a 35 pS cation channel that conducts all inorganic monovalent cations (Na^+, K^+, Cs^+, Li^+, Rb^+), but is impermeable to Ca^2+ and Mg^2+ (Chen and Simard, 2001). […] Studies using a variety of organic monovalent cations indicate that the channel has an equivalent pore radius of 0.41 nm.
The NCCa-ATP channel is believed to be composed of pore-forming and regulatory subunits. The regulatory subunit is sulfonylurea receptor 1 (SUR1), the same as that for KATP channels in pancreatic β cells (Chen et al., 2003), and so NCCa-ATP and pancreatic KATP channels have pharmacological profiles that resemble each other closely. […] Knockdown of SUR1 using antisense-oligodeoxynucleotide reduces SUR1 expression (Simard et al., 2006) and prevents expression of functional NCCa-ATP channels.

The next assay has as its system transient focal ischemia. The following applies: pre- or post-ischemic administration; cited from earlier work.
In assay [7] the test system is isolated retina of chick embryo. The note with it: glucose/oxygen deprivation or excitotoxic conditions; cited from earlier work.
In another assay the test system is recombinant MMP. Kind of assay: Zymography of gelatinase activity of recombinant MMP. The note with it: glibenclamide 10 μM; MMP-inhibitor II 300 nM. The format is biochemical. The text has this: In stroke, hemorrhagic conversion has been attributed to activation of matrix metalloproteinases (MMP) (Gidday et al., 2005; Justicia et al., 2003; Lorenzl et al., 2003; Romanic et al., 1998). […] This was studied directly using zymography of recombinant MMPs.

Assay [8] relates to cervical spinal cord contusion injury. The experiment in a line: Rat cervical hemi-cord contusion spinal cord injury model. It counts as in vivo. From the text: The cervical contusion SCI model that is used is that of Soblosky et al. (2001). Adult female Long-Evans rats are anesthetized (Ketamine and Xylazine) and a hemilaminectomy is made at C4-5 to expose the dura. A hemi-cervical spinal cord contusion is created using a blunt force impactor (see details below “The model of contusion SCI”).
To generate the injury for the data shown here, the impactor was activated using a 10-gm weight dropped from 2.5 cm.
Animals were sacrificed at ¾ hr and 24 hr after contusion SCI (n=5 rats per group), they were perfused with heparinized saline to remove intravascular blood, and 5-mm segments of cord encompassing the lesion were homogenized and processed using Drabkin's reagent to convert hemoglobin to cyanomethemoglobin for spectrophotometric measurements (Choudhri et al., 1997).
Animals underwent the same SCI as above, and immediately after, were implanted with mini-osmotic pumps (Alzet 2002, 14 day pump, […]; Durect Corporation, Cupertino, CA) that delivered either saline or drug s.q.
Spinal cords were examined 24 hr after SCI. […] In other rats, […] sections of cord were harvested that encompassed the contusion site and we quantified the amount of blood present in tissues after removal of intravascular blood by perfusion at time of euthanasia (n=5-6 rats per group).
As previously described (Gensel et al., 2006), rats were placed in a glass cylinder to which they had not been previously exposed. A peanut butter treat was placed 8 inches above the floor, and the number of seconds spent with both front paws elevated above shoulder-height was counted during a 3-min period of observation.

In the next assay the test system is NCCa-ATP channels. The experiment in a line: Nystatin-perforated patch clamp of hypoxic endothelial cells, current activated by Na+ azide. It counts as cell-based, human. The following applies: 1 μM; hypoxic conditions. As for the experimental part: Patch clamp of endothelial cells was performed using a nystatin-perforated patch technique, to maintain the metabolic integrity of the cells. The identity of the activated channel can be assessed by measurement of the “reversal potential”, the potential at which an ion channel current reverses from inward to outward. With physiologically relevant concentrations of ions intracellularly and extracellularly (high potassium inside, high sodium outside), the reversal potential can unambiguously distinguish between a K^+ channel current such as KATP, which reverses negative to −50 mV and a non-selective cation channel current such as NCCa-ATP, which reverses near 0 mV.
Channel activation was also studied upon induction by Na^+ azide, a […] that depletes cellular ATP (Chen and Simard, 2001).

Assay [9] concerns freshly isolated reactive astrocytes. The following applies: 1 mM Na azide; 1 μM glibenclamide; cited from earlier work.
Assay [10] relates to large MCA stroke associated with malignant cerebral edema. The following applies: cited from earlier work.
In assay [11] the test system is stroke induced by thromboemboli. The note with it: constant infusion 75-200 ng/h; cited from earlier work.
In assay [12] the target is receptor-mediated Ca2+ entry. The note with it: cited from earlier work.
[13] abbreviates: after 6 h of vascular occlusion.
Setting [14] is: Membrane Preparation derived from freshly isolated native reactive astrocytes.

T1 sequence (Q09428 whole entry): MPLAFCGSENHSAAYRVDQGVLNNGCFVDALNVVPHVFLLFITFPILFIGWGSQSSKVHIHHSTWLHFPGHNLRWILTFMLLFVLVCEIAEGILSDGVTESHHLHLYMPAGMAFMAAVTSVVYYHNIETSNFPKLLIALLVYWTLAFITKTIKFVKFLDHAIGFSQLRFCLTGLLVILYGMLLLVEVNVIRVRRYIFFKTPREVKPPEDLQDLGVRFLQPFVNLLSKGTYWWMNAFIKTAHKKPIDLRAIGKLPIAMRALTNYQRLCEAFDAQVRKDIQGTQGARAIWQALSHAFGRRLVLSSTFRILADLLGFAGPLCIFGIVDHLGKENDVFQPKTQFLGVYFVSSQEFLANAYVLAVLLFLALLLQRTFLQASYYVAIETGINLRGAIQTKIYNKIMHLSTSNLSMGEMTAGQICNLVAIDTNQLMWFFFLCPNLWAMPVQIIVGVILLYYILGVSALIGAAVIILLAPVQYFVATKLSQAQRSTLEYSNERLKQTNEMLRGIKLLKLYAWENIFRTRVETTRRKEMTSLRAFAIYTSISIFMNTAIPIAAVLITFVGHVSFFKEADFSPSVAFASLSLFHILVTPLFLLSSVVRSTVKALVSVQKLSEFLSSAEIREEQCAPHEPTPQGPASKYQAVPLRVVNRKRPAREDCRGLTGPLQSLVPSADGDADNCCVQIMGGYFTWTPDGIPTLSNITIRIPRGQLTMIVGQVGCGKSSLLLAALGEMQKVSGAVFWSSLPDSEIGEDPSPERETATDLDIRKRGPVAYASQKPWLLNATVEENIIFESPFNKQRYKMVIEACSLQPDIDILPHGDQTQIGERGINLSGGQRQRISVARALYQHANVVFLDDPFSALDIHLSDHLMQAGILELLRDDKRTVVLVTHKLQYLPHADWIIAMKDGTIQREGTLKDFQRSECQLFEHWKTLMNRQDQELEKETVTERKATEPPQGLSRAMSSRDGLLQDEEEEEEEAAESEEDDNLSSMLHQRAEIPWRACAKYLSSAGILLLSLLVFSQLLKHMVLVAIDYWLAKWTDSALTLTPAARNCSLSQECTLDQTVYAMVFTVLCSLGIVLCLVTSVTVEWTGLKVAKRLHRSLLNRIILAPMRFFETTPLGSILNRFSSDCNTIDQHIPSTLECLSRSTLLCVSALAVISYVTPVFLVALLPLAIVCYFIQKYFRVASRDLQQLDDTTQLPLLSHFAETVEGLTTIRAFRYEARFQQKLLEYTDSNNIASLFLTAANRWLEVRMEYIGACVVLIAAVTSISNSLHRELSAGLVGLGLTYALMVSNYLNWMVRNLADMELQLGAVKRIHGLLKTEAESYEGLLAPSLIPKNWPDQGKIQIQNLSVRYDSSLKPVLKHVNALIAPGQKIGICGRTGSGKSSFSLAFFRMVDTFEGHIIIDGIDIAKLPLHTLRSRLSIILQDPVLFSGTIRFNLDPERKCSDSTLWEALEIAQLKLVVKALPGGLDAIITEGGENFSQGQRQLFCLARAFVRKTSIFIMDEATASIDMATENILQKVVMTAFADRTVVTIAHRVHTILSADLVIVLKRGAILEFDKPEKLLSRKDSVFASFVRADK
T1 sequence (Q8TD43 whole entry partner): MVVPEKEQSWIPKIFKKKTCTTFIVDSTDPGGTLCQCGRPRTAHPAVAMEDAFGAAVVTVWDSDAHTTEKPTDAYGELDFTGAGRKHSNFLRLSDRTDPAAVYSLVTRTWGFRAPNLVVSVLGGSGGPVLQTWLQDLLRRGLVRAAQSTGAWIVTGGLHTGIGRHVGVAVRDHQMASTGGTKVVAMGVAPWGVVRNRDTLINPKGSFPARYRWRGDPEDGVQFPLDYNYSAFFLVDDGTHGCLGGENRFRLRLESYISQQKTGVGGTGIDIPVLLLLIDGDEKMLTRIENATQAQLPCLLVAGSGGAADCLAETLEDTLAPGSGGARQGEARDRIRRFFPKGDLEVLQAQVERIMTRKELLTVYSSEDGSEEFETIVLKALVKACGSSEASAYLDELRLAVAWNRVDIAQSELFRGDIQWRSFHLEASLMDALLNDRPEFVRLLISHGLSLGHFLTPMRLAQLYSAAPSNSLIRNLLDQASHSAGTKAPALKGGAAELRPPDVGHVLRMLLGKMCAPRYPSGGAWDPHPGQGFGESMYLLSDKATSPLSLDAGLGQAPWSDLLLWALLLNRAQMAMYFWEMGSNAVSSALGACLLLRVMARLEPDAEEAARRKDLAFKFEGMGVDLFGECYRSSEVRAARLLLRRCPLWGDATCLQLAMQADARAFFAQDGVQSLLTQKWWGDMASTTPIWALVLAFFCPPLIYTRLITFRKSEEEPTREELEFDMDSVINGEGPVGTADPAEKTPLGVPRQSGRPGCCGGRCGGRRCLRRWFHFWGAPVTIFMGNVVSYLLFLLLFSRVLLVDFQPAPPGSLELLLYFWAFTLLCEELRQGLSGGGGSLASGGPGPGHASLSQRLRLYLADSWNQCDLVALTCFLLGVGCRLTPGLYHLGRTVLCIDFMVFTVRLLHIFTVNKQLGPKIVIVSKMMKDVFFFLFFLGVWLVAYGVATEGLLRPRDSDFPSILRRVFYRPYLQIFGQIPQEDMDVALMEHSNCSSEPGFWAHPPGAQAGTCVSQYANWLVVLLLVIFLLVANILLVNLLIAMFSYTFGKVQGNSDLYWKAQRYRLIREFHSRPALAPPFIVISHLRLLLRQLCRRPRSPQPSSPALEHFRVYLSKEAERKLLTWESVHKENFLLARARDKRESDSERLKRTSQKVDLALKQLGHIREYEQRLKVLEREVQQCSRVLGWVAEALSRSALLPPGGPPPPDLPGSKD

On to `CC1=NS(=O)(=O)c2cc(Cl)ccc2N1` [diazoxide], for which the “Membrane current, reversing near 0 mV” value in assay [1] (cells maintained under hypoxic conditions) was “significantly increased; also recorded: activated an ohmic current”. Besides, the “Block or opening of the NCCa-ATP channel” value on NCCa-ATP channel [2] is listed as “opened”. Further, at NCCa-ATP channel [2] (in the presence of ATP), the “Channel opening in the presence of ATP” value is “increased”. Also, the Cell blebbing result in assay [3] is recorded as “reproduced”.

As to `Cc1c(C(=O)NN2CCCCC2)nn(-c2ccc(Cl)cc2Cl)c1-c1ccc(Cl)cc1` [rimonabant], in the assay on permanent MCAO, the “Reduction of infarct volume” value is given as approximately 40%. Moreover, the “Electroencephalographic changes, hyperlocomotion and memory impairment induced by global ischemia” value in the assay on global cerebral ischemia is reported as “antagonize”.

With `COc1cc2c(cc1OC)C(C(C(=O)N(CCc1ccc(OC)c(OC)c1OC)CCc1ccc(OC)c(OC)c1OC)c1ccccc1)=NCC2` (racemic) [pinokalant, (R,S)-(3,4-dihydro-6,7-dimethoxy-isoquinoline-1-yl)-2-phenyl-N,N-di[2-(2,3,4-trimethoxyphenyl)ethyl]-acetamide], in [4] (setting [13]), the Blood flow entry was “significantly higher”; the “Reduction of the volume of ATP-depleted and morphologically injured tissue (infarct core)” value is on record as 60-70%. Further, the “Decrease of ADC lesion volume” value in assay [4] (initial 6 h of vascular occlusion, untreated increased by approximately 50%) was “approximately 20%”. Also, the DWI-derived infarct volume result in [5] (4 h after MCAO) was “significantly smaller”. In addition, in assay [5] (at 24 h), the Neurological scores result is “significantly better”. Moreover, in assay [5] (postmortem), the TTC-derived infarct volume result is given as “significantly attenuated”.

Consider `Nc1ncnc2c1ncn2[C@@H]1O[C@H](COP(=O)(O)OP(=O)(O)O)[C@@H](O)[C@H]1O` [ADP], for which the Effect on channel entry on NCCa-ATP channel [6] (setting [14]) and at NCCa-ATP channel [6] (Reactive Astrocytes) was “No channel effect” throughout. Also, the “Effect on channel opening” value at NCCa-ATP channel [2] is given as “unaffected”.

For the compound `Cc1cccc(Nc2ccccc2C(=O)O)c1C` [mefenamic acid], in the assay with transient focal ischemia, the “Neuroprotection (necrosis in cortex and subcortical structures)” value is “no neuroprotection”. Moreover, the “Protection of retina against ischemic or excitotoxic insult” value (“Protection of retina” for short) in assay [7] was “protected”.

With `COc1ccc(Cl)cc1C(=O)NCCc1ccc(S(=O)(=O)NC(=O)NC2CCCCC2)cc1` [glibenclamide], the Gelatinase activity result in the assay on recombinant MMP is given as “the same”. The “Hemorrhage at the contusion site” value in assay [8] (24 hr after SCI, 75 ng/hr s.q.) was “significantly reduced; also recorded: less prominent”. In addition, the “Blood in 6-mm cord segment encompassing the contusion” value in assay [8] (24 hr after SCI, 75 ng/hr s.q., vehicle 1.9±0.02) was found to be 0.9 ± 0.2 µL. Besides, the “Neurological function (rearing behavior)” value in [8] (24 hr after injury, 3-min observation) was “significant neurological functional improvement; also recorded: significantly better; also recorded: improves neurological function”. Besides, in the assay with NCCa-ATP channels, the “Ohmic current activated by Na+ azide-induced ATP depletion” value is “blocked”. In addition, the Membrane depolarization entry in [3] (cells exposed to Na+ azide to deplete ATP) is “blocks”. In addition, the Cell blebbing result in assay [3] is “significantly reduces; also recorded: completely prevented; also recorded: blocked”. In addition, the “Necrotic cell death induced by Na azide” value in assay [9] is on record as “significantly reduced; also recorded: significant reduced”. For the same compound, the Reduction of mortality result in [10] (constant infusion 75-200 ng/h) is “by half”. In assay [10] (control rats 68%, n=29 in each group), the 7-day mortality was 28%. The “Reduction of cerebral edema / ionic edema (excess water)” value in [10] (low-dose, post-ischemic) is given as “reduced by half”. Also, in assay [11], the “Reduction of lesion volume / stroke size” value is listed as “reduced by half”.

As to `Nc1ncnc2c1ncn2[C@@H]1O[C@H](COP(=O)(O)OP(=O)(O)OP(=O)(O)O)[C@@H](O)[C@H]1O` [ATP], the EC50 at NCCa-ATP channel [6] (setting [14]) is 790 nM; at NCCa-ATP channel [6] (Reactive Astrocytes) it was 790 nM; on NCCa-ATP channel [2] (read-out: Block of channel opening, EC50), 790 nM. Further, the “Single channel openings in inside-out patches” value in [1] (20 μM in the bath, hypoxic cells, Cs+ as cation) is recorded as “inhibited”.

Consider `O=C(O)c1ccccc1Nc1cccc(C(F)(F)F)c1` [flufenamic acid], for which, in assay [7], the “Protection of retina” value is recorded as “protected”.

Regarding `CCOc1cc(CC(=O)N[C@@H](CC(C)C)c2ccccc2N2CCCCC2)ccc1C(=O)O` [repaglinide], the “Block or opening of the NCCa-ATP channel” value at NCCa-ATP channel [2] is listed as “blocked”.

For `Oc1cc2c(cc1O)CN(C(=S)NCCc1ccc(Cl)cc1)CCC2` [capsazepine], the “Effect on rimonabant-induced and capsaicin-induced neuroprotective effects” value with global cerebral ischemia is listed as “reversed”.

Regarding `Nc1ncnc2c1ncn2[C@@H]1O[C@H](COP(=O)(O)O)[C@@H](O)[C@H]1O` [AMP], the Effect on channel entry on NCCa-ATP channel [6] (setting [14]) and on NCCa-ATP channel [6] (Reactive Astrocytes) was “No channel effect” in each case. At NCCa-ATP channel [2], the “Effect on channel opening” value was “unaffected”.

Consider `Cc1ccc(Cl)c(Nc2ccccc2C(=O)O)c1Cl` [meclofenamic acid], for which the “Protection of retina” value in [7] is recorded as “protected”.

Regarding `COc1ccc(CCCOC(Cn2ccnc2)c2ccc(OC)cc2)cc1` (stereo not drawn) [SKF 96365, 1-(beta-[3-(4-methoxy-phenyl)propoxy]-4-methoxyphenethyl)-1H-imidazole hydrochloride], in [12], the half-inhibitory concentration (IC50) is approximately 10000 nM.

With `COc1cc(CNC(=O)CCCC/C=C/C(C)C)ccc1O` [capsaicin], in the assay with global cerebral ischemia, the “Electroencephalographic changes, hyperlocomotion and memory impairment induced by global ischemia” value was “antagonize”.

One may read the EC50 as the concentration needed to bring the measured effect to its halfway point. A word on the IC50: it is the concentration that gives 50% inhibition.
